Measured values reported in patent US20200214324A1, “Masking Bitter Flavors” (Board of Supervisors of Louisiana State University and …, priority 2009, published 2020).
“Also recorded” adds a separate entry of the source.

What was measured:
Format in all cases: in vivo
[1] = tasting of soy milk with mogroside; details: plain + 200 ppm mogroside (plain: beany)
Text: (§1) Additional examples of the use of Mogroside V to alter the flavors of various consumables, and the experimental results obtained, are summarized in Table I: […]

[2] = tasting of acai ice cream with glycerine and mogroside
Text: as §1

[3] = tasting of glycerine-water mixtures with mogroside
Text: Glycerine causes an astringent or biting taste in the back of the mouth when added to foods at levels over a few percent by weight. […] Glycerine may then be used as a humectant in intermediate-moisture human and pet foods. Adding a preferred concentration of about 200 ppm mogroside reduces or even eliminates the glycerine “bite.” Foods such as beans, pasta, rice, and bulgur can be pre-cooked in aqueous solutions of glycerine (˜2 to ˜30% by weight), containing ˜25 to ˜500 ppm mogroside. The products are then optionally dried to a water activity (aw) less than ˜0.7. The resulting materials can be rehydrated quickly with no bitter flavor.
as §1

[4] = blind tasting of poached beef liver puree
Experimental: In another experiment, mogroside was added to a beef liver puree, and the puree was poached to an internal temperature of 74° C. A control puree with no mogroside was identically cooked. Six individuals tasted the samples blind and could easily differentiate them.

In the case of mogroside, the flavor [1] is reported as “decreased beany flavor”, the flavor and texture ([2]; + 5% Acai + 5% glycerin + 200 ppm mogroside) is reported as “not too much flavor,; also recorded: slightly soft” and the flavor and texture ([2]; + 5% Acai + 5% glycerin + 300 ppm mogroside) is reported as “soft, sweet”. For the same substance, the flavor and texture ([2]; + 5% Acai + 5% glycerin + 400 ppm mogroside) was “sweet, not much flavor,; also recorded: some berry, soft”, the flavor and texture ([2]; + 10% Acai + 5% glycerin + 200 ppm mogroside) was “berry notes, slightly soft” and the flavor and texture ([2]; + 10% Acai + 5% glycerin + 300 ppm mogroside) was “creamy”. For the same substance, the flavor and texture ([2]; + 10% Acai + 5% glycerin + 400 ppm mogroside) was “sweet, jammy, creamy,; also recorded: a bit too sweet”, the flavor and texture ([2]; + 10% Acai + 10% glycerin + 300 ppm mogroside) was “creamy” and the flavor and texture ([2]; + 10% Acai + 10% glycerin + 400 ppm mogroside) was “sweet, jammy, creamy,; also recorded: a bit too sweet”. The flavor and texture ([2]; plain + glycerine + 300 ppm mogroside (plain + glycerine: tannic, not sweet)) was “soft and creamy, sweet,; also recorded: berry, mild; best texture”, the flavor and texture ([2]; plain ice cream + 300 ppm mogroside (only)) was “plain, gummy” and the flavor ([3]; 50% glycerine solution + mogroside (without: biting)) was “sweet”. For the same substance, the “effect on astringent or biting taste of glycerine” value ([3]; mogroside added to glycerine-water mixtures) was “greatly reduces or even eliminates the astringent or biting taste”, the “taste description by six blind tasters” value ([4]; 150-250 ppm, puree poached to 74° C., control livery, organy, bloody) was “slightly sweet, “bologna-like,” and “bland.”” and the “level preferred by the majority of testers” value ([4]; in vivo) was 200 ppm. For the same substance, the preference of testers ([4]; samples with mogroside vs control puree, six individuals) was “All testers preferred the samples with mogroside”.
